Experimental data reported in patent US20210177778A1, “EXOSOME PRODUCTION PROMOTER” (DAICEL CORPORATION, priority 2017, published 2021).

Tested on: Human neuroblastoma-derived SH-SY5Y cell
Assay: Number of exosome particles released by SH-SY5Y cells after sphingolipid addition (qNano)
Assay type: cell-based
Conditions: 10 μM sphingolipid, 24 hours, particles per mg cell protein
Description: Human neuroblastoma-derived SH-SY5Y cell was used as the cultured cell. After the cell was inoculated in a 6-well plate at 2.5×10^5 cells/well together with a medium (50% Ham's F12/50% E-MEM) and cultured at 37° C. for 24 hours, the animal ceramide (Cer), sphingomyelin (SM), or glucosylceramide (GuCer) sphingolipid was each added to each well. The sphingolipid was suspended in a serum-free medium (50% Ham's F12/50% E-MEM) containing 3% bovine serum albumin (BSA), and added so that the concentration in the well was 10 μM. The control was performed when the added amount of sphingolipid was 0 μM. […]
The exosome recovered by the centrifugation method was suspended in a HEPES/KCl buffer, and then the number of particles was measured with a nanoparticle analyzer qNano (Izon Inc.). The measured value was expressed as the number of particles per protein mass (mg) of the derived cell calculated by the BCA method. […]
Experimental Example 2 was performed under the same conditions as in the above Experimental Example 1 except that the konjac-derived glucosylceramide (kGluCer) or the konjac-derived ceramide (kCer) are used as the sphingolipid and sphingolipids having concentrations of 5 μM, 7.5 μM, or 10 μM, respectively, were added to the cell in place of a concentration of 0 μM (control), and the number of exosome particles was measured.

SMILES	number of exosome particles compared to the control
CCCCCCCCCCCCC/C=C/[C@@H](O)[C@H](CO)NC(=O)CCCCC [C6 ceramide, N-hexanoyl-D-erythro-sphingosine]	further promoted
CCCCCCCCCCCCC/C=C/[C@@H](O)[C@H](CO)NC(=O)CCCCCCCCCCCCCCCCC [C18 ceramide, N-stearoyl-D-erythro-sphingosine]	further promoted
